Measurements as given in patent publication US20190209539A1, “THIOHYDANTOIN ANDROGEN RECEPTOR ANTAGONISTS FOR THE TREATMENT OF CANCER” (Janssen Pharmaceutica NV, priority 2016, published 2019).
Residue numbers refer to the chain shown, from its start.

Legend:
[1] = molecular target: T1, F876L mutant Androgen Receptor (AR-F876L) (Homo sapiens, UniProt P10275, F877L); assay: LNCaP-AR-F876L ANT: ARE luciferase reporter assay, antagonist mode; type: cell-based
T1 construct: expressed in transfected cells; host or cells: LNCaP F876L cells with ARE firefly luciferase lentiviral construct
T1 sequence (P10275 1-920 F877L): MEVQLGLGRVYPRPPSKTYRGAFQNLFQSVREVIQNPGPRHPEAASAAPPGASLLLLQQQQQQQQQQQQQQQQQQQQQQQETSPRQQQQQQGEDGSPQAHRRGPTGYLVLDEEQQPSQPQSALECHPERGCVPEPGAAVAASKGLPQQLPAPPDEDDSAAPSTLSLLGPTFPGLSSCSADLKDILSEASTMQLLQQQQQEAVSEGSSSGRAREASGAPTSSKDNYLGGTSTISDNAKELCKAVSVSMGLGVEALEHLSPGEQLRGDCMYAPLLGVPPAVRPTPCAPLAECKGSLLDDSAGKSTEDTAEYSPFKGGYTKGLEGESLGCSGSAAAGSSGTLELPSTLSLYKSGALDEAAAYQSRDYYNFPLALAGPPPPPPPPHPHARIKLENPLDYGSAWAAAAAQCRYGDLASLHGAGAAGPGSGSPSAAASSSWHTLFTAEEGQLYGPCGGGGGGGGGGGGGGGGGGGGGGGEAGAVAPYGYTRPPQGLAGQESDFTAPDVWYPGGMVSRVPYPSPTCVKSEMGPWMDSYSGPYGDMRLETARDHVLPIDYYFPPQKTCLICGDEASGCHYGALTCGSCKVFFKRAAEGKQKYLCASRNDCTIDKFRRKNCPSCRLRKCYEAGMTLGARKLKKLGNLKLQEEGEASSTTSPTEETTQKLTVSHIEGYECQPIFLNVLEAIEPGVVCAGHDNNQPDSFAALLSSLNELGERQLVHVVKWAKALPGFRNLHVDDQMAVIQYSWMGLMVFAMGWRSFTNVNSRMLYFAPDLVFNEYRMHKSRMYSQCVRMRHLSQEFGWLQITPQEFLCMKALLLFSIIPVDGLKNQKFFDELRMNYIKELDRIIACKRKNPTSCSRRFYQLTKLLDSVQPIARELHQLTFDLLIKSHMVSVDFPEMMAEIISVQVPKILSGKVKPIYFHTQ
Procedure: (§1) A stable pooled-population cell line was generated using puromycin (Life Technologies) selection at 1:10,000 v/v. The protocol below was used for both cell lines and for testing of the compounds of Formula (I) of the present invention.
(§2) LNCaP cells were grown to about 80% confluence, media removed and cells rinsed in Hank's balanced salt solution prior to separation from the plate with 0.05% Trypsin EDTA. Cells were lifted and trypsin negated in complete CSS (charcoal stripped serum) culture media. […] Agonist challenge was at 400 pM for WT assay and 600 pM for F876L assay. Plates containing cells and compounds herein were incubated for a further 20-24 hours at 37° C., 5% CO2 before addition of 40 μL/well of Steady-Glo Luciferase Assay System Reagent (Promega# E2520). After 1 h, plates were read for luminescence on a BMG Pherastar.
(§3) EC/IC50 calculations were achieved utilizing calculated RLU data and data fitting macros. Data were fit using least-squares methods to the following formula: […]
(§4) As used herein: pIC50 is defined as—Log10(IC50 expressed in [Molar]). pEC50 is defined as—Log10(EC50 expressed in [Molar]). […] LNCaP-AR-wt ANT refers to the reporter assay using LNCaP cells stably transfected with the Androgen Response Element Firefly Luciferase lentiviral construct and wild-type Androgen Receptor (AR-wt) in Antagonist mode. […]

[2] = molecular target: T2, wild-type Androgen Receptor (AR-wt) (Homo sapiens, UniProt P10275); assay: LNCaP-AR-wt ANT: ARE luciferase reporter assay, antagonist mode; type: cell-based
T2 construct: expressed in transfected cells; host or cells: LNCaP AR (cs) cells with ARE firefly luciferase lentiviral construct
T2 sequence (P10275 1-920): T1 sequence (P10275 1-920 F877L) with L877F
Procedure: as §1, §2, §3, §4

[3] = molecular target: T2, wild-type Androgen Receptor (AR-wt); assay: LNCaP-AR-wt AG: ARE luciferase reporter assay, agonist mode; type: cell-based
Procedure: as §1, §2, §3
(§5) As used herein: pIC50 is defined as—Log10(IC50 expressed in [Molar]). pEC50 is defined as—Log10(EC50 expressed in [Molar]). […] LNCaP-AR-wt ANT refers to the reporter assay using LNCaP cells stably transfected with the Androgen Response Element Firefly Luciferase lentiviral construct and wild-type Androgen Receptor (AR-wt) in Antagonist mode. LNCaP-AR-wt AG refers to the reporter assay using LNCaP cells stably transfected with the Androgen Response Element Firefly Luciferase lentiviral construct and wild-type Androgen Receptor (AR-wt) in Agonist mode. LNCaP-AR-F876L ANT refers to the reporter assay using LNCaP cells stably transfected with the Androgen Response Element Firefly Luciferase lentiviral construct and F876L mutant Androgen Receptor (AR-F876L) in Antagonist mode. LNCaP-AR-F876L AG refers to the reporter assay using LNCaP cells stably transfected with the Androgen Response Element Firefly Luciferase lentiviral construct and F876L mutant Androgen Receptor (AR-F876L) in Agonist mode.

[4] = molecular target: T1, F876L mutant Androgen Receptor (AR-F876L); assay: LNCaP-AR-F876L AG: ARE luciferase reporter assay, agonist mode; type: cell-based
Procedure: as §1, §2, §3, §5

T877A AR mutant = molecular target: T3, T877A AR mutant (Homo sapiens, UniProt P10275, T878A); conditions: cited from earlier work
T3 sequence (P10275 1-920 T878A): T1 sequence (P10275 1-920 F877L) with L877F, T878A

[5] = maximum % stimulation (agonist response), % of 1 μM R-1881 max

| Compound | LNCaP-AR-wt AG MAX % Stim [3, 5] | LNCaP-AR-F876L AG MAX % Stim [4, 5] | also measured |
| --- | --- | --- | --- |
| CNC(=O)c1ccc(N2C(=S)N(c3cnc(C#N)c(C)c3)C(=O)C23CCCC3)cc1F [Cpd 65, 4-[7-(6-cyano-5-methyl-3-pyridyl)-6-oxo-8-thioxo-7,9-diazaspiro[4.4]nonan-9-yl]-2-fluoro-N-methyl-benzamide] | – | – | IC50 ([1]; antagonist mode, 600 pM R-1881 challenge, read-out: LNCaP-AR-F876L ANT pIC50 (converted)): 389 nM; Emax ([1]; maximum % inhibition of R1881 control response over tested concentration range, read-out: LNCaP-AR-F876L ANT MAX % Inh): 98.9%; IC50 ([2]; antagonist mode, 400 pM R-1881 challenge, read-out: LNCaP-AR-wt ANT pIC50 (converted)): 417 nM; Emax ([2]; maximum % inhibition of R1881 control response over tested concentration range, read-out: LNCaP-AR-wt ANT MAX % Inh): 97.8%; EC50 ([3]; agonist mode, read-out: LNCaP-AR-wt AG pEC50 (converted)): > 15100 nM; Emax ([3]; maximum % stimulation (agonist response), % of 1 μM R-1881 max, read-out: LNCaP-AR-wt AG MAX % Stim): 1.2%; EC50 ([4]; agonist mode, read-out: LNCaP-AR-F876L AG pEC50 (converted)): > 15100 nM; Emax ([4]; maximum % stimulation (agonist response), % of 1 μM R-1881 max, read-out: LNCaP-AR-F876L AG MAX % Stim): 0.8% |
| Cc1cc(N2C(=O)C3(CCC3)N(c3ccc(-c4cncnc4)cc3)C2=S)cnc1C#N [Cpd 93, 3-methyl-5-[5-oxo-8-(4-pyrimidin-5-ylphenyl)-7-thioxo-6,8-diazaspiro[3.4]octan-6-yl]pyridine-2-carbonitrile] | 0.9% | 0.8% | – |
| Cc1cc(N2C(=O)C3(CCC3)N(c3ccc(C4CCOCC4)cc3)C2=S)cnc1C#N [Cpd 101, 3-methyl-5-[5-oxo-8-(4-tetrahydropyran-4-ylphenyl)-7-thioxo-6,8-diazaspiro[3.4]octan-6-yl]pyridine-2-carbonitrile] | 1.1% | 1.7% | – |
| N#Cc1ncc(N2C(=O)C3(CCC3)N(c3ccc(Oc4ccccn4)cc3)C2=S)cc1C(F)(F)F [Cpd 103, 5-[5-oxo-8-[4-(2-pyridyloxy)phenyl]-7-thioxo-6,8-diazaspiro[3.4]octan-6-yl]-3-(trifluoromethyl)pyridine-2-carbonitrile] | 4.0% | 2.0% | – |
| C#CCNC(=O)c1ccc(N2C(=S)N(c3cnc(C#N)c(C(F)(F)F)c3)C(=O)C23CCC3)cc1F [Cpd 111, 4-[6-[6-cyano-5-(trifluoromethyl)-3-pyridyl]-5-oxo-7-thioxo-6,8-diazaspiro[3.4]octan-8-yl]-2-fluoro-N-prop-2-ynyl-benzamide] | 0.5% | 2.7% | – |
| Cc1cncc(-c2ccc(N3C(=S)N(c4cnc(C#N)c(C)c4)C(=O)C34CCC4)cc2)c1 [Cpd 114, 3-methyl-5-[8-[4-(5-methyl-3-pyridyl)phenyl]-5-oxo-7-thioxo-6,8-diazaspiro[3.4]octan-6-yl]pyridine-2-carbonitrile] | 0.7% | 3.3% | – |
| CC(C)(O)C(=O)Nc1ccc([N+](=O)[O-])c(C(F)(F)F)c1 [hydroxyflutamide] | – | – | activity in T877A AR mutant (T877A AR mutant): act as AR agonists |
